According to publication PMC8068036, “Synthesis of New Biscoumarin Derivatives, In Vitro Cholinesterase Inhibition, Molecular Modelling and Antiproliferative Effect in A549 Human Lung Carcinoma Cells” (International Journal of Molecular Sciences, 2021):
“Also recorded” adds a separate entry of the source.

Experiments:
in vitro = test: in vitro
Procedure: The parallel artificial membrane permeability assay (PAMPA) is used as a non-cell-based in vitro assay to predict BBB penetration and is carried out in a coated 96-well membrane filter. In our assays, the filter membrane of the donor plate was coated with PBL (Polar Brain Lipid, Avanti, Denver, CO, USA) in dodecane (4 µL of 20 mg mL^−1 PBL in dodecane), and the acceptor well was filled with 300 µL of phosphate buffered saline (PBS) (pH 7.4; VA). The tested compounds were first dissolved in DMSO, and the resulting mixture was diluted with PBS (pH 7.4) to reach the final concentration (40–100 µM) in the donor well. […] Three hundred microliters of the donor solution (VD) were added to the donor wells, and the donor filter plate was carefully placed onto the acceptor plate to ensure that the coated membrane was “in contact” with both the donor solution and the acceptor buffer. The test compound diffused from the donor well through the polar brain lipid membrane (area = 0.28 cm^2) to the acceptor well. The concentration of the tested compound in both the donor and acceptor wells was assessed after 3, 4, 5, and 6 h of incubation, respectively, in quadruplicate using a UV plate reader Synergy HT (Biotek, Winooski, VT, USA) at the maximum absorption wavelength of each compound. Additionally, solutions at the theoretical equilibrium of the given compound (i.e., the theoretical concentration if the donor and acceptor compartment were simply combined) were also prepared.

A549 cells [1] = test: Apoptosis by cleaved PARP immunolabelling; assay type: cell-based, human; settings: A549, 24 h
Procedure: The studied biscoumarin derivatives were added to cells seeded on 12-well μ-Chamber slides for 24 h. After cultivation with the derivatives, the samples (both the control without the derivatives and experimental groups) were washed with a 0.1 M PBS solution buffer to remove all non-cell-absorbed derivative residues and fixed with 4% paraformaldehyde for 20 min at RT. Alternatively, cells were incubated with Mitotracker Red (0.5 µM; Thermo Fisher Scientific, Waltham, MA, USA) for 30 min at 37 °C, washed with 0.1 M PBS, and fixed with 4% paraformaldehyde for 20 min at RT. For the quantification of proliferative activity and programmed cell death, samples were incubated overnight at 4 °C with the mouse anti-Ki67 antibody (NCL-L-Ki67-MM1, 1:100, Leica Biosystems, Wetzlar, Germany) and rabbit anti-cleaved PARP (cat. no. 94885, 1:100, Cell Signaling, Danvers, MA, USA) diluted in 0.1 M PBS containing 1% normal donkey serum (Jackson Immunoresearch, Cambridgeshire, Great Britain) and 0.3% Triton-X 100. […]
All samples were evaluated using a Leica TCS SP5X confocal system (Leica Microsystems, Mannheim, Germany). The biscoumarin derivatives were visualized in cells using a 405 nm laser, and the fluorescence was captured in the range of 420–480 nm with identical exposure parameters for all samples. […]

A549 cells [2] = test: Cell cycle analysis (flow cytometry, PI); assay type: cell-based, human; settings: 35 and 65 µM, 24 h
Procedure: For flow cytometric analysis of the cell cycle distribution, floating and adherent cells were harvested together 24 h after treatment with the derivatives (35 and 65 µM), washed in cold PBS, fixed in cold 70% ethanol, and stored overnight at −20 °C. Prior to analysis, the cells were washed twice in PBS, resuspended in a staining solution (0.1% Triton X-100, 0.137 g L^−1 ribonuclease A and 0.02 g L^−1 propidium iodide—PI), and incubated in dark conditions at RT for 30 min. The DNA content was analyzed using a BD FACSCalibur flow cytometer (Becton Dickinson, San Jose, CA, USA) with a 488 nm argon-ion excitation laser, and fluorescence was detected using a 585/42 nm band-pass filter (FL-2). ModFit 3.0 software (Verity Software House, Topsham, ME, USA) was used to generate DNA content frequency histograms and to quantify the percentage of cells in the individual cell cycle phases. The results are presented as the average ratio of cells in the individual phase to all cells from three independent experiments.

**Q.** With `COC(=O)Cc1cc(=O)oc2cc(OCCCCCCCCN3CCN(CCNC(=O)Cc4cc(=O)oc5cc(O)ccc45)CC3)ccc12` [12e, Methyl 2-[7-({2-[4-(2-{[2-(7-hydroxy-2-oxo-2H-4-chromenyl)acetyl]amino}etyl)piperazino]oktyl}oxy)-2-oxo-2H-4-chromenyl]acetate] as the compound, how does the “BBB permeability prediction (in words)” value (in vitro; PAMPA) read?
**A.** positive outcome; also recorded: high probability of BBB permeability; also recorded: high probability to cross the BBB

**Q.** What about the Papp (in vitro; PAMPA, pH 7.4) of the same compound?
**A.** 13.4 ± 3.56 ×10⁻⁶ cm/s

**Q.** What about the “CNS Predicted Availability” value (in vitro; classification from PAMPA-BBB Pe) of the same compound?
**A.** CNS+ (CNS+: high BBB permeation predicted with Pe (×10^−6 cm s^−1) > 4.0)

**Q.** And the “Apoptotic cells (cleaved PARP)” value (A549 cells [1])?
**A.** ≤ 0.001%

**Q.** What about the “Cell cycle distribution, G0/G1 phase (in words)” value (A549 cells [2]) of the same compound?
**A.** increase in the percentage of the cell population in the G0/G1 phase
